Laboratory results reported in ChEMBL document CHEMBL2203210, “SAR and in vivo evaluation of 4-aryl-2-aminoalkylpyrimidines as potent and selective Janus kinase 2 (JAK2) inhibitors” (Bioorg Med Chem Lett, 2012).
pIC50: −log10 of the molar value.

Experiments:
Cytochrome P450 3A4 = Cytochrome P450 3A4 (Homo sapiens, UniProt P08684); assay: Inhibition of CYP3A4; format: ADME
Mus musculus [1] = assay: Inhibition of JAK2 in HEL 92.1.7 cells xenografted in nude mouse assessed as inhibition of STAT3 phosphorylation at 300 mg/kg, po after 4 hrs relative to vehicle-treated control; format: functional
Canis familiaris [2] = assay: Dose normalized AUC in Beagle dog at 3 mg/kg, po; format: ADME, organism-based, Canis lupus familiaris; set-up: dose 3 mg/kg, route oral; settings: in vivo
Mus musculus [3] = assay: Inhibition of JAK2 in HEL 92.1.7 cells xenografted in nude mouse assessed as inhibition of STAT3 phosphorylation at 30 mg/kg, po after 4 hrs relative to vehicle-treated control; format: functional
Rattus norvegicus [4] = assay: Dose normalized AUC in CD rat at 5 mg/kg, po; format: ADME, organism-based; set-up: dose 5 mg/kg, route oral; settings: in vivo
[5] = Oral bioavailability in cynomolgus monkey at 3 mg/kg; format: ADME, organism-based, Macaca fascicularis; settings: in vivo
[6] = target: Ribosomal protein S6 kinase beta-1 (Homo sapiens, UniProt P23443); assay: Inhibition of P70S6K
[7] = Half life in CD rat at 5 mg/kg, po; format: ADME, organism-based; set-up: dose 5 mg/kg, route oral; settings: in vivo
[8] = Inhibition of p-gp
[9] = Half life in CD rat at 5 mg/kg, iv; format: ADME, organism-based; set-up: dose 5 mg/kg, route intravenous; settings: in vivo
[10] = Cmax in cynomolgus monkey at 3 mg/kg, iv; format: ADME, organism-based, Macaca fascicularis; set-up: dose 3 mg/kg, route intravenous; settings: in vivo
Cynomolgus monkey [11] = assay: Dose normalized AUC in cynomolgus monkey at 3 mg/kg, iv; format: ADME, organism-based, Macaca fascicularis; set-up: dose 3 mg/kg, route intravenous; settings: in vivo
[12] = target: Tyrosine-protein kinase JAK1 (Homo sapiens, UniProt P23458); assay: Inhibition of JAK1
[13] = Cmax in CD rat at 5 mg/kg, po; format: ADME, organism-based; set-up: dose 5 mg/kg, route oral; settings: in vivo
[14] = Half life in Beagle dog at 3 mg/kg, po; format: ADME, organism-based, Canis lupus familiaris; set-up: dose 3 mg/kg, route oral; settings: in vivo
Mus musculus [15] = assay: Dose normalized AUC in athymic nude mouse at 10 mg/kg, iv; format: ADME, organism-based; set-up: dose 10 mg/kg, route intravenous; settings: in vivo
[16] = Cmax in Beagle dog at 3 mg/kg, po; format: ADME, organism-based, Canis lupus familiaris; set-up: dose 3 mg/kg, route oral; settings: in vivo
Mus musculus [17] = assay: Volume of distribution in athymic nude mouse at 10 mg/kg, po and iv; format: ADME, organism-based; set-up: dose 10 mg/kg, route oral; settings: in vivo
[18] = target: Vascular endothelial growth factor receptor 2 (Homo sapiens, UniProt P35968); assay: Inhibition of KDR
[19] = Half life in Beagle dog at 3 mg/kg, iv; format: ADME, organism-based, Canis lupus familiaris; set-up: dose 3 mg/kg, route intravenous; settings: in vivo
[20] = target: Voltage-gated inwardly rectifying potassium channel KCNH2 (Homo sapiens, UniProt Q12809); assay: Inhibition of human ERG
[21] = Drug uptake in nude mouse xenografted with HEL 92.1.7 cells at 30 mg/kg, po after 4 hrs; format: ADME, organism-based; set-up: dose 30 mg/kg, route oral; settings: in vivo, read-out: Drug uptake
[22] = Half life in cynomolgus monkey at 3 mg/kg, po; format: ADME, organism-based, Macaca fascicularis; set-up: dose 3 mg/kg, route oral; settings: in vivo
Rattus norvegicus [23] = assay: Volume of distribution in CD rat at 5 mg/kg, po and iv; format: ADME, organism-based; set-up: dose 5 mg/kg, route oral; settings: in vivo
[24] = Cmax in athymic nude mouse at 10 mg/kg, iv; format: ADME, organism-based; set-up: dose 10 mg/kg, route intravenous; settings: in vivo
Cytochrome P450 2D6 = Cytochrome P450 2D6 (Homo sapiens, UniProt P10635); assay: Inhibition of CYP2D6; format: ADME
[25] = Cmax in CD rat at 5 mg/kg, iv; format: ADME, organism-based; set-up: dose 5 mg/kg, route intravenous; settings: in vivo
[26] = Cmax in cynomolgus monkey at 3 mg/kg, po; format: ADME, organism-based, Macaca fascicularis; set-up: dose 3 mg/kg, route oral; settings: in vivo
[27] = target: Platelet-derived growth factor receptor alpha (Homo sapiens, UniProt P16234); assay: Inhibition of PDGFRA
Cynomolgus monkey [28] = assay: Volume of distribution in cynomolgus monkey at 3 mg/kg, po and iv; format: ADME, organism-based, Macaca fascicularis; set-up: dose 3 mg/kg, route oral; settings: in vivo
[29] = Cmax in athymic nude mouse at 10 mg/kg, po; format: ADME, organism-based; set-up: dose 10 mg/kg, route oral; settings: in vivo
[30] = target: Platelet-derived growth factor receptor beta (Homo sapiens, UniProt P09619); assay: Inhibition of PDGFRB
[31] = Half life in cynomolgus monkey at 3 mg/kg, iv; format: ADME, organism-based, Macaca fascicularis; set-up: dose 3 mg/kg, route intravenous; settings: in vivo
Mus musculus [32] = assay: Inhibition of JAK2 in HEL 92.1.7 cells xenografted in nude mouse assessed as inhibition of STAT1 phosphorylation at 100 mg/kg, po after 4 hrs relative to vehicle-treated control; format: functional
[33] = Metabolic stability in mouse liver microsomes assessed as compound remaining after 30 mins; format: ADME, Microsome; settings: read-out: Stability
[34] = target: Vascular endothelial growth factor receptor 1 (Homo sapiens, UniProt P17948); assay: Inhibition of FLT1
Mus musculus [35] = assay: Inhibition of JAK2 in HEL 92.1.7 cells xenografted in po dosed nude mouse assessed as inhibition of STAT1 phosphorylation after 4 hrs; format: functional, organism-based
Canis familiaris [36] = assay: Volume of distribution in Beagle dog at 3 mg/kg, po and iv; format: ADME, organism-based, Canis lupus familiaris; set-up: dose 3 mg/kg, route oral; settings: in vivo
[37] = Half life in athymic nude mouse at 10 mg/kg, iv; format: ADME, organism-based; set-up: dose 10 mg/kg, route intravenous; settings: in vivo
[38] = Oral bioavailability in CD rat at 5 mg/kg; format: ADME, organism-based; settings: in vivo
[39] = Plasma concentration in nude mouse xenografted with HEL 92.1.7 cells at 30 mg/kg, po after 4 hrs; format: ADME, organism-based; set-up: dose 30 mg/kg, route oral
[40] = Plasma concentration in nude mouse xenografted with HEL 92.1.7 cells at 100 mg/kg, po after 4 hrs; format: ADME, organism-based; set-up: dose 100 mg/kg, route oral
[41] = target: Vascular endothelial growth factor receptor 3 (Homo sapiens, UniProt P35916); assay: Inhibition of FLT4
[42] = Oral bioavailability in Beagle dog at 3 mg/kg; format: ADME, organism-based, Canis lupus familiaris; settings: in vivo
[43] = target: Mitogen-activated protein kinase kinase kinase 9 (Homo sapiens, UniProt P80192); assay: Inhibition of MLK1
Cytochrome P450 2C9 = Cytochrome P450 2C9 (Homo sapiens, UniProt P11712); assay: Inhibition of CYP2C9; format: ADME
Mus musculus [44] = assay: Dose normalized AUC in athymic nude mouse at 10 mg/kg, po; format: ADME, organism-based; set-up: dose 10 mg/kg, route oral; settings: in vivo
Cynomolgus monkey [45] = assay: Dose normalized AUC in cynomolgus monkey at 3 mg/kg, po; format: ADME, organism-based, Macaca fascicularis; set-up: dose 3 mg/kg, route oral; settings: in vivo
HEL = assay: Anitumour activity against HEL 92.1.7 cells xenografted in nude mouse assessed as tumor growth inhibition at 300 mg/kg, po bid administered up to 14 days relative to vehicle-treated control; format: functional, Homo sapiens; settings: 336 h, read-out: TGI
[46] = Half life in athymic nude mouse at 10 mg/kg, po; format: ADME, organism-based; set-up: dose 10 mg/kg, route oral; settings: in vivo
Mus musculus [47] = assay: Inhibition of JAK2 in HEL 92.1.7 cells xenografted in nude mouse assessed as inhibition of STAT1 phosphorylation at 300 mg/kg, po after 4 hrs relative to vehicle-treated control; format: functional
Cytochrome P450 1A2 = Cytochrome P450 1A2 (Homo sapiens, UniProt P05177); assay: Inhibition of CYP1A2; format: ADME
Canis familiaris [48] = assay: Dose normalized AUC in Beagle dog at 3 mg/kg, iv; format: ADME, organism-based, Canis lupus familiaris; set-up: dose 3 mg/kg, route intravenous; settings: in vivo
[49] = target: Inhibitor of nuclear factor kappa-B kinase subunit beta (Homo sapiens, UniProt O14920); assay: Inhibition of IKKbeta
Mus musculus [50] = assay: Inhibition of JAK2 in HEL 92.1.7 cells xenografted in po dosed nude mouse assessed as inhibition of STAT3 phosphorylation after 4 hrs; format: functional, organism-based
[51] = target: Receptor-type tyrosine-protein kinase FLT3 (Homo sapiens, UniProt P36888); assay: Inhibition of FLT3
[52] = target: Mast/stem cell growth factor receptor Kit (Homo sapiens, UniProt P10721); assay: Inhibition of c-KIT
Rattus norvegicus [53] = assay: Dose normalized AUC in CD rat at 5 mg/kg, iv; format: ADME, organism-based; set-up: dose 5 mg/kg, route intravenous; settings: in vivo

Sequence of Cytochrome P450 1A2 (P05177 whole entry): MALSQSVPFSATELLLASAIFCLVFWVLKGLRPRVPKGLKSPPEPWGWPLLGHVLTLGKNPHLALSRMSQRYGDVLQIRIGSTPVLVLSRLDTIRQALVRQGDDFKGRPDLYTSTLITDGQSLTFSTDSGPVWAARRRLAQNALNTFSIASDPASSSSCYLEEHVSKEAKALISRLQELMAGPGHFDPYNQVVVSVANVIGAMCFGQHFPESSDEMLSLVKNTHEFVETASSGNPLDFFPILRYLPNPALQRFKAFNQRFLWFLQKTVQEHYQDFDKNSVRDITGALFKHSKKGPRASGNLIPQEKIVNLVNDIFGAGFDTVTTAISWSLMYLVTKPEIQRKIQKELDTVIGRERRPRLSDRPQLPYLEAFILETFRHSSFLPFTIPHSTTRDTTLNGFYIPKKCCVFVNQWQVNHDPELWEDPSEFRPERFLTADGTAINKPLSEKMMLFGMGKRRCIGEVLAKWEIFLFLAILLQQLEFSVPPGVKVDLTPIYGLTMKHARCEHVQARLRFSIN
Sequence of Ribosomal protein S6 kinase beta-1 (P23443 whole entry): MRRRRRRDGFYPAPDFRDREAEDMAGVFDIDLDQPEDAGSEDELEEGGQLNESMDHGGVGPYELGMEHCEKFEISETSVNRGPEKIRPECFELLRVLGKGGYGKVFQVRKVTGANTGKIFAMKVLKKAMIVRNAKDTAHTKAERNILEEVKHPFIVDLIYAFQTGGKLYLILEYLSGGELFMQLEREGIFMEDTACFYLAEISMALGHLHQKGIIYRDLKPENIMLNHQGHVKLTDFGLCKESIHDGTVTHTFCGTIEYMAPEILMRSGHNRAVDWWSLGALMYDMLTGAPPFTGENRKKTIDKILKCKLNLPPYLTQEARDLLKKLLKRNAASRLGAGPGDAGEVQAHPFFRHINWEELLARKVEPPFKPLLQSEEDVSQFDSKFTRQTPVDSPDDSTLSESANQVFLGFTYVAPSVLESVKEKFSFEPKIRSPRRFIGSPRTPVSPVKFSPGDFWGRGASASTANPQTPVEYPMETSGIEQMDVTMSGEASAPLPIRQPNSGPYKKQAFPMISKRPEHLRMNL
Sequence of Cytochrome P450 2D6 (P10635 whole entry): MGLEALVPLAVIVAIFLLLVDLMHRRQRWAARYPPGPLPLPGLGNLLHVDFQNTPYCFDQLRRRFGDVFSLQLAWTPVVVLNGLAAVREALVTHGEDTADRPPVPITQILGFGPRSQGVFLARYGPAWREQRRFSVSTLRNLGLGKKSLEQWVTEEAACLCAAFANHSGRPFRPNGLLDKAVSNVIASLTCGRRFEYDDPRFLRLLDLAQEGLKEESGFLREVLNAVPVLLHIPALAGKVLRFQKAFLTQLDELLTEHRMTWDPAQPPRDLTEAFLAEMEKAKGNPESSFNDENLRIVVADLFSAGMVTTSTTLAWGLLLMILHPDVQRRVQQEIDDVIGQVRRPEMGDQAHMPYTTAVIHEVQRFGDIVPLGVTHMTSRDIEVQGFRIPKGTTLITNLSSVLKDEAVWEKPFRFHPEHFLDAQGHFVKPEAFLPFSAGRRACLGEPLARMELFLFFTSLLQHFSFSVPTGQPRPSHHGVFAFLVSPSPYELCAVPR
Sequence of Mast/stem cell growth factor receptor Kit (P10721 whole entry): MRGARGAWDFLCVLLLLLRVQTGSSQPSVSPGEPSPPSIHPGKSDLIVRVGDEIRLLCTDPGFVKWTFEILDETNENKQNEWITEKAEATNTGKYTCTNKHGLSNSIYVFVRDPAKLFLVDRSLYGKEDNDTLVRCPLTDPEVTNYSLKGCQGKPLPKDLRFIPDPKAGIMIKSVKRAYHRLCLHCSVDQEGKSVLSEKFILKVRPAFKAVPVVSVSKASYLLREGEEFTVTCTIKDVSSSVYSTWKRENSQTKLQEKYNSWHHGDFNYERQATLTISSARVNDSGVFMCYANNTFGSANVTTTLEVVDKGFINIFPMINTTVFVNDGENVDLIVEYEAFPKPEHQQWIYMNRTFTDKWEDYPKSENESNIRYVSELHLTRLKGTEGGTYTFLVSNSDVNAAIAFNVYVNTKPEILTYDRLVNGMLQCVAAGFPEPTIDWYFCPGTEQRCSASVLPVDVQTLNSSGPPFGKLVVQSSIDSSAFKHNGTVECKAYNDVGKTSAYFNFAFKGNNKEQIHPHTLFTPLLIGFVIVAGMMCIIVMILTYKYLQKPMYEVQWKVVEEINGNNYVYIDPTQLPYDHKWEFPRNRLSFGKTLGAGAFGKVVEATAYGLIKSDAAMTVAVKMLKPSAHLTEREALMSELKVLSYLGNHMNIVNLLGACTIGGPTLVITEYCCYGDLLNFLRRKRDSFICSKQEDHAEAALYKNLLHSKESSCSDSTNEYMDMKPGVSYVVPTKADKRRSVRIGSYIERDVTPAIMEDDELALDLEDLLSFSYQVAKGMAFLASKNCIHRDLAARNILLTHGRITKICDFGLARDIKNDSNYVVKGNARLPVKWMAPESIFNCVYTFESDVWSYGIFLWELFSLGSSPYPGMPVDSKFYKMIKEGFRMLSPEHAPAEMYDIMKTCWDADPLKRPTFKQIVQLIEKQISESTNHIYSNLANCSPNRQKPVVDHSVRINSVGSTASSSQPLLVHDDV
Sequence of Platelet-derived growth factor receptor beta (P09619 whole entry): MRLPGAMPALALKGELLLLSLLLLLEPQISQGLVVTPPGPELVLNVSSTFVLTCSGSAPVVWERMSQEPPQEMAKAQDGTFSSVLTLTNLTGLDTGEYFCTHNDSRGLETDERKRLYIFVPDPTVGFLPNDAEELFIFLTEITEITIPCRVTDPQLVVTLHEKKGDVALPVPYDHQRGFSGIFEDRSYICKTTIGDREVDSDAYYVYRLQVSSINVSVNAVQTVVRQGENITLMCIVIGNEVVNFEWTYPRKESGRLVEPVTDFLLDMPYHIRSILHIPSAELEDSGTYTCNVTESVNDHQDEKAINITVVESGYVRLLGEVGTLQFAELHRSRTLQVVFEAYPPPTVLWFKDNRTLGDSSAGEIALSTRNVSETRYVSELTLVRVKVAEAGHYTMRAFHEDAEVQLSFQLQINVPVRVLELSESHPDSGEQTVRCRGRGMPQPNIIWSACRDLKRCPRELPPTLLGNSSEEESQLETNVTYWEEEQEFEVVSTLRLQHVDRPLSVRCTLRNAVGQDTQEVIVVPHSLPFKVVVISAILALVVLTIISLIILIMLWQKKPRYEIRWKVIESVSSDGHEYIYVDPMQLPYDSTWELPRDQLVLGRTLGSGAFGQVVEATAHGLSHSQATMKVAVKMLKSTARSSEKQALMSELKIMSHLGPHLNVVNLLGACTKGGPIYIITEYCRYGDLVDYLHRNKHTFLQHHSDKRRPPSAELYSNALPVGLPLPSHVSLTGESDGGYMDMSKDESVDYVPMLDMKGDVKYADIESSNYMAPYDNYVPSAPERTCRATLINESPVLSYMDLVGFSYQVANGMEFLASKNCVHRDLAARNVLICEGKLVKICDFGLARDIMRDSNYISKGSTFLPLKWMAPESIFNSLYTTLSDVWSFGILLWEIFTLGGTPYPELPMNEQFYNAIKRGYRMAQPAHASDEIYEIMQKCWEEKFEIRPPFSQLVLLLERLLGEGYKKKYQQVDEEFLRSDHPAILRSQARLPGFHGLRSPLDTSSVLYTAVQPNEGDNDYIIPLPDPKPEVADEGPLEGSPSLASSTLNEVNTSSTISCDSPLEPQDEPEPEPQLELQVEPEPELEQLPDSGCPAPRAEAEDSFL
Sequence of Mitogen-activated protein kinase kinase kinase 9 (P80192 whole entry): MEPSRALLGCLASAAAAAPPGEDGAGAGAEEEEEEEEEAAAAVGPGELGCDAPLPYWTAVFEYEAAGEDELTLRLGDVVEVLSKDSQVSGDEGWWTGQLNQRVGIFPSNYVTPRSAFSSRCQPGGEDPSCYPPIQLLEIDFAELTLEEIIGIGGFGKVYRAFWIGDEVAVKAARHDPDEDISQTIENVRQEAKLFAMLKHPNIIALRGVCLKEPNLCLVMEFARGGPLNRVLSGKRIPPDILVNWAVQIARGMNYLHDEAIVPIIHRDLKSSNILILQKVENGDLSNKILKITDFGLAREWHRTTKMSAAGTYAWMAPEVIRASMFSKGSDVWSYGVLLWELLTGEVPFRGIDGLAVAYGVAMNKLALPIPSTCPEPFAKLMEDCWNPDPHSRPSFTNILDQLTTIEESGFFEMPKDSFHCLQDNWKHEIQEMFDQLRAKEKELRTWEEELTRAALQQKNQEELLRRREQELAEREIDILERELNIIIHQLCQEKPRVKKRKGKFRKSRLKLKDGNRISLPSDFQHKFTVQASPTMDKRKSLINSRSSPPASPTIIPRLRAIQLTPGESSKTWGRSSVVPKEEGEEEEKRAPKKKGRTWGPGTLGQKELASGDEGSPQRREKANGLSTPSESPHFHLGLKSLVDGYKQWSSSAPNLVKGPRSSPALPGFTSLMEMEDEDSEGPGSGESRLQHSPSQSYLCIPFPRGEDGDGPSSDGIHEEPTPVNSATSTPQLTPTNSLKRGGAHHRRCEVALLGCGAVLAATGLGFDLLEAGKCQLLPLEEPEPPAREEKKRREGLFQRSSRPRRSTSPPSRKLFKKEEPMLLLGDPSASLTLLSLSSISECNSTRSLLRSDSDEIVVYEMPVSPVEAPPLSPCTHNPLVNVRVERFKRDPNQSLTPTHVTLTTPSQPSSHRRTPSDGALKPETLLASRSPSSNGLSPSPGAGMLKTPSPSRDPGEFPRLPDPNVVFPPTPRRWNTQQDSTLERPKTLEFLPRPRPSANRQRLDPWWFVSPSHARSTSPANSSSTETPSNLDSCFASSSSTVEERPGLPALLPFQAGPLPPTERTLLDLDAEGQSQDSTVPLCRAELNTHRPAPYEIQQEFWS

- INH (Cytochrome P450 3A4): >= 20 uM
- AUC/dose (Canis familiaris [2]): 0.68 µM·kg·h/mg
- AUC/dose (Rattus norvegicus [4]): 8.54 µM·kg·h/mg
- bioavailability [5]: 68.6%
- pIC50 [6]: 6.50
- half-life [7]: 3.23 h
- INH [8]: > 20 µM
- half-life [9]: 3.12 h
- Cmax [10]: 0.64 µM
- AUC/dose (Cynomolgus monkey [11]): 1.76 µM·kg·h/mg
- pIC50 [12]: 6.87
- Cmax [13]: 3.53 µM
- half-life [14]: 5.06 h
- AUC/dose (Mus musculus [15]): 0.42 µM·kg·h/mg
- Cmax [16]: 0.17 µM
- Vd (Mus musculus [17]): 5.319 L/kg
- pIC50 [18]: 6.32
- half-life [19]: 6 h
- concentration at 4 h [21]: 2 µM
- half-life [22]: 3.36 h
- Vd (Rattus norvegicus [23]): 0.666 L/kg
- Cmax [24]: 5.24 µM
- INH (Cytochrome P450 2D6): >= 20 uM
- Cmax [25]: 13 µM
- Cmax [26]: 0.49 µM
- pIC50 [27]: 6.26
- Vd (Cynomolgus monkey [28]): 6.739 L/kg
- Cmax [29]: 0.57 µM
- pIC50 [30]: 6.90
- half-life [31]: 3.28 h
- remaining at 0.5 h [33]: 62%
- pIC50 [34]: 6.04
- pIC50 (Mus musculus [35]): 5.86
- Vd (Canis familiaris [36]): 13.4 L/kg
- half-life [37]: 1.13 h
- bioavailability [38]: 53.6%
- concentration at 4 h [39]: 0.83 µM
- concentration at 4 h [40]: 5.35 µM
- pIC50 [41]: 6.26
- bioavailability [42]: 44.8%
- pIC50 [43]: 6.43
- INH (Cytochrome P450 2C9): >= 20 uM
- AUC/dose (Mus musculus [44]): 0.21 µM·kg·h/mg
- AUC/dose (Cynomolgus monkey [45]): 1.2 µM·kg·h/mg
- half-life [46]: 1.94 h
- INH (Cytochrome P450 1A2): >= 20 uM
- AUC/dose (Canis familiaris [48]): 1.47 µM·kg·h/mg
- pIC50 [49]: 6.43
- pIC50 (Mus musculus [50]): 4.89
- pIC50 [51]: 6.85
- pIC50 [52]: 6.65
- AUC/dose (Rattus norvegicus [53]): 15.99 µM·kg·h/mg
Compound: O=C(Nc1ccc(-c2ccnc(Nc3ccc(N4CCOCC4)cc3)n2)cc1)[C@H]1CCCN1
- inhibition in vivo at 300 mg/kg (Mus musculus [1]): 55%
- inhibition in vivo at 30 mg/kg (Mus musculus [3]): 9%
- INH [20]: 16 µM
- inhibition in vivo at 100 mg/kg (Mus musculus [32]): 72%
- ED50 (Mus musculus [35]; po): 42 mg/kg
- inhibition in vivo at 300 mg/kg (HEL): 70%
- inhibition in vivo at 300 mg/kg (Mus musculus [47]): 88%
- ED50 (Mus musculus [50]; po): 210 mg/kg
